According to article PMC8448983 (European journal of medicinal chemistry, 2021):
Like-named read-outs stand apart in the source and are kept apart here. Marks after values point to notes of the source that are not given here.

Columns and labels:
[1] = target: T1, human A3 adenosine receptor (Homo sapiens, UniProt P0DMS8); test: Radioligand binding, HEK293 cells expressing human A3 receptor; details: for activity class (active / inactive) in SAR and selectivity analysis / receptor selectivity class: compounds 33–52, NIH binding data; for Ki: read-out: Ki, A3 AR, [125I]-N6-(4-amino-3-iodobenzyl)adenosine-5′-N-methyluronamide; for Ki / percent of inhibition, A3 AR: NIH laboratory, HEK293; for percent of inhibition, A3 AR: 10 μM compound, agonist radioligand
T1 sequence (P0DMS8 1-318): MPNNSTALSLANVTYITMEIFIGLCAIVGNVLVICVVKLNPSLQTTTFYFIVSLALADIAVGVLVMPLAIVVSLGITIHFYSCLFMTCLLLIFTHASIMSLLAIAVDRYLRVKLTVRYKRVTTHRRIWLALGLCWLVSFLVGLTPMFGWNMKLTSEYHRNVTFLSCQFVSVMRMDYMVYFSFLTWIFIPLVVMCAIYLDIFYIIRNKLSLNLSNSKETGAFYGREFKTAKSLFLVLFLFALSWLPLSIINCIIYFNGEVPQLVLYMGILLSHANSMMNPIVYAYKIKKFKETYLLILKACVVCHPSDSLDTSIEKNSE

[2] = target: T2, human A2A adenosine receptor (Homo sapiens, UniProt P29274); test: Radioligand binding, HEK293 cells expressing human A2A receptor; details: for percent of inhibition, A2A AR: 10 μM compound, NIH laboratory, agonist radioligand
T2 sequence (P29274 whole entry): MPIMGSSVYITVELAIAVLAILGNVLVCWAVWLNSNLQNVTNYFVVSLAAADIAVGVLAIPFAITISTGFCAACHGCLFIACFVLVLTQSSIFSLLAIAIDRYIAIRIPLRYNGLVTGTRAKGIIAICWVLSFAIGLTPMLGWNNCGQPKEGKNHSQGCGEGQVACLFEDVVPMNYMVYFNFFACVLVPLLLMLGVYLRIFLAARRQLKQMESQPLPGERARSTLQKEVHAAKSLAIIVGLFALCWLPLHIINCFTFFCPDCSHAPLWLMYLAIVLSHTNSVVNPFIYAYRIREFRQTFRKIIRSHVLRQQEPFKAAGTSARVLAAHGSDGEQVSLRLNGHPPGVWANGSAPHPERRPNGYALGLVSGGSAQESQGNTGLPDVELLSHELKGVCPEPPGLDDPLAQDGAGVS

[3] = target: T3, human A1 adenosine receptor (Homo sapiens, UniProt P30542); test: Radioligand binding, HEK293 cells expressing human A1 receptor; details: for percent of inhibition, A1 AR: 10 μM compound
T3 sequence (P30542 1-326): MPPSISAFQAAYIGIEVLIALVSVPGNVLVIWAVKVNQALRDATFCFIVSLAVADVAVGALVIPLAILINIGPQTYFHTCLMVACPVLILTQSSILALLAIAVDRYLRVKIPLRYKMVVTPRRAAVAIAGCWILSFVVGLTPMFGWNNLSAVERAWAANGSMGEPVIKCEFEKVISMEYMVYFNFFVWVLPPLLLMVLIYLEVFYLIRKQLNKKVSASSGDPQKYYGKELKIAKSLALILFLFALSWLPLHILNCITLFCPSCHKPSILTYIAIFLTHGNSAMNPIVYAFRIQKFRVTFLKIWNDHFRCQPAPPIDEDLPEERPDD

[4] = target: T2, human A2A adenosine receptor; details: 10 μM compound; USEF; HeLa-A2A membranes; 3 nM [3H]-ZM241385
[5] = target: T3, human A1 adenosine receptor; details: 10 μM compound; USEF; CHO-A1 membranes; 1 nM [3H]-DPCPX
[6] = target: T4, human A2B adenosine receptor (Homo sapiens, UniProt P29275); details: USEF, HEK-A2B membranes, 25 nM [3H]-DPCPX; for percent of inhibition, A2B AR: 10 μM compound
T4 sequence (P29275 1-332): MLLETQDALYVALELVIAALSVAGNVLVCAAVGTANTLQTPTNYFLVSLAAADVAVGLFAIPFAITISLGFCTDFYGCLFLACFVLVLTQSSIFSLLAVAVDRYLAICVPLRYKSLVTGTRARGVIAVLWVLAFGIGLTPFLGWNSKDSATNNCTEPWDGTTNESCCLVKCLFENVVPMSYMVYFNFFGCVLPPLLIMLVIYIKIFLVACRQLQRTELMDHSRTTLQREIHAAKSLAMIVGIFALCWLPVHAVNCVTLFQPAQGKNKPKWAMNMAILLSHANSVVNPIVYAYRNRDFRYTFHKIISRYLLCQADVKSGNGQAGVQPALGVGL

human blood platelets = test: ADP-induced platelet aggregation in platelet-rich plasma; format: cell-based; details: 10 μM ADP, mean ± SD, n = 6–9
[7] = target: T1, human A3 adenosine receptor; details: for activity class (active / inactive) in selectivity analysis / receptor selectivity class: N6 carborane derivatives, USEF binding data; for Ki: read-out: Ki, A3 AR; for Ki / percent of inhibition, A3 AR: USEF, HeLa-A3 membranes, 10 nM [3H]-NECA; for percent of inhibition, A3 AR: 10 μM compound
human A3 receptor = target: T5, human A3 receptor (Homo sapiens, UniProt P0DMS8); test: Functional cAMP assay in CHO-A3 cells; format: cell-based; details: for KB (antagonist mode; functional character at A3): inhibition of NECA (0.1 μM) effect on cAMP; for % Emax: maximal agonist effect; for EC50: read-out: EC50 (cAMP), agonist mode
T5 sequence (P0DMS8 1-318): T1 sequence (P0DMS8 1-318)

[8] = NIH laboratory, HEK293, [3H]-N6-R-phenylisopropyladenosine

Row | Molecule | activity class (active / inactive) in SAR and selectivity analysis [1] | receptor selectivity class [1] | percent of inhibition, A2A AR [2] | percent of inhibition, A1 AR [3, 8] | area under the aggregation curve, ADP-induced platelet aggregation (human blood platelets; 10 μM compound) | area under the aggregation curve, ADP-induced platelet aggregation (human blood platelets; 50 μM compound) | also measured
1 | N^6-[(1,12-dicarba-closo-dodecaboran-1-yl)but-4-yl]-5′-ethylcarbamoyl-adenosine [Compound 15] |  |  |  |  | 698.7 ± 74.4 arbitrary units | 657.1 ± 70.7 arbitrary units | percent of inhibition, A2A AR [4]: 9 ± 1 %^a; percent of inhibition, A1 AR [5]: 40 ± 2 %^a; percent of inhibition, A2B AR [6]: 7 ± 2 %^a; activity class (active / inactive) in selectivity analysis [7]: active; receptor selectivity class [7]: A3 AR selective; Ki [7]: 0.437 µM; KB (antagonist mode; functional character at A3) (human A3 receptor): no antagonist; % Emax (human A3 receptor): 99%; EC50 (human A3 receptor): 1.01 µM
2 | 8-[2-(1,12-dicarba-closo-dodecaboran-1-yl)ethynyl] adenosine [Compound 33] | inactive |  | 17.1 ± 8% | 29 ± 7% |  |  | percent of inhibition, A3 AR [1]: 48 ± 12%
3 | 8-[2-(1,12-dicarba-closo-dodecaboran-1-yl)ethynyl]-2′-deoxyadenosine [Compound 43] | inactive |  | 10 ± 5% | 6 ± 6% |  |  | percent of inhibition, A3 AR [1]: 1 ± 8%
4 | N^6-[3-(1,12-dicarba-closo-dodecaboran-1-yl)propyl]-2-chloro-2′-deoxyadenosine [Compound 27] |  |  |  |  |  |  | percent of inhibition, A2A AR [4]: 1 ± 1 %^a; percent of inhibition, A1 AR [5]: 25 ± 1 %^a; Ki ([6]; read-out: Ki, A2B AR): 4.67 µM; percent of inhibition, A3 AR [7]: 10 ± 3 %^a
5 | N^6-[(1,12-dicarba-closo-dodecaboran-1-yl)but-4-yl]adenosine [Compound 7] |  |  |  |  | 686.5 ± 66.1 arbitrary units | 642.8 ± 45.4 arbitrary units | percent of inhibition, A2A AR [4]: 2 ± 1 %^a; percent of inhibition, A1 AR [5]: 29 ± 1 %^a; percent of inhibition, A2B AR [6]: 1 ± 1 %^a; activity class (active / inactive) in selectivity analysis [7]: active; receptor selectivity class [7]: A3 AR selective; Ki [7]: 0.444 µM; KB (antagonist mode; functional character at A3) (human A3 receptor): no antagonist; % Emax (human A3 receptor): 103%; EC50 (human A3 receptor): 0.271 µM
6 | N^6-[3-(1,12-Dicarba-closo-dodecaboran-1-yl)propyl]adenosine [Compound 39] |  |  | 0 ± 1% | 32 ± 1% | 678.4 ± 55.7 arbitrary units | 658.0 ± 46.8 arbitrary units | percent of inhibition, A3 AR [1]: 0 ± 12%
7 | Nc1ncnc2c1nc(C#Cc1ccccc1)n2[C@@H]1O[C@H](CO)[C@@H](O)[C@H]1O [Compound 34, 8-(2-phenylethynyl)adenosine] | active | A3 selective |  |  |  |  | inhibition at 10 µM ([3]; read-out: percent of inhibition, A1 AR): 11 ± 3%
8 | N^6-(3-phenylpropyl)-2-chloro-2′-deoxyadenosine [Compound 28] |  |  |  |  |  |  | percent of inhibition, A2A AR [4]: 14 ± 2 %^a; percent of inhibition, A2B AR [6]: 1 ± 1 %^a
9 | N^6-[3-(1,12-dicarba-closo-dodecaboran-1-yl)propyl]-2-chloroadenosine [Compound 23] |  |  |  |  | 715.3 ± 85.8 arbitrary units | 657.0 ± 67.2 arbitrary units | percent of inhibition, A2A AR [4]: 1 ± 1 %^a
10 | Nc1ncnc2c1nc(CCc1ccccc1)n2[C@@H]1O[C@H](CO)[C@@H](O)[C@H]1O [Compound 36, 8-(2-phenylethyl)adenosine] | inactive |  |  |  |  |  | 
11 | 8-[2-(1,12-dicarba-closo-dodecaboran-1-yl)ethyl]-adenosine [Compound 35] | inactive |  | 18 ± 4% | 16 ± 7% | 665.7 ± 86.8 arbitrary units | 682.3 ± 17.4 arbitrary units | percent of inhibition, A3 AR [1]: 9 ± 13%
12 | N^6-[(1,12-dicarba-closo-dodecaboran-1-yl)prop-3-yl]-5′-ethylcarbamoyl adenosine [Compound 17] |  |  |  |  | 646.2 ± 58.6 arbitrary units | 639.5 ± 64.7 arbitrary units | percent of inhibition, A2A AR [4]: 1 ± 1 %^a; percent of inhibition, A1 AR [5]: 18 ± 3 %^a; percent of inhibition, A2B AR [6]: 4 ± 4 %^a; percent of inhibition, A3 AR [7]: 34 ± 4 %^a; activity class (active / inactive) in selectivity analysis [7]: inactive

The next lines start with results.

Row | activity class (active / inactive) in SAR and selectivity analysis [1] | receptor selectivity class [1] | percent of inhibition, A2A AR [2] | percent of inhibition, A1 AR [3, 8] | Molecule | area under the aggregation curve, ADP-induced platelet aggregation (human blood platelets; 10 μM compound) | area under the aggregation curve, ADP-induced platelet aggregation (human blood platelets; 50 μM compound) | also measured
13 | active | not selective |  |  | Nc1ncnc2c1nc(C#Cc1ccccc1)n2[C@H]1C[C@H](O)[C@@H](CO)O1 [Compound 44] |  |  | 
14 | active | A3 selective | 17 ± 2.7% | 15 ± 1% | 2-ethynyl-(1,12-dicarba-closo-dodecaboran-2-yl) arabinoadenosine [Compound 47] |  |  | Ki [1]: 4.39 ± 2.02 µM
15 | active | not selective |  |  | Nc1nc(C#Cc2ccccc2)nc2c1ncn2[C@@H]1O[C@H](CO)[C@@H](O)[C@H]1O [Compound 42, 2-Phenylethynyladenosine] |  |  | 
16 |  |  | 7 ± 2% | 6 ± 10% | 2′-O-(1,12-dicarba-closo-dodecaboran-1-yl)propyleneoxymethyl]-adenosine [Compound 37] | 661.1 ± 61.3 arbitrary units | 616.0 ± 24.7 arbitrary units | percent of inhibition, A3 AR [1]: 19 ± 14%
17 | inactive | not selective |  |  | Nc1nc(CCc2ccccc2)nc2c1ncn2[C@@H]1O[C@H](CO)[C@@H](O)[C@H]1O [Compound 46] |  |  | 
18 | inactive |  |  |  | Nc1ncnc2c1nc(CCc1ccccc1)n2[C@H]1C[C@H](O)[C@@H](CO)O1 [Compound 52] |  |  | 
19 | active | not selective |  |  | 2-Ethynyl-(1,12-dicarba-closo-dodecaboran-1-yl)adenosine [Compound 41] |  |  | Ki ([2]; read-out: Ki, A2A AR, NIH laboratory, [3H]-2-[p-(2-carboxyethyl)phenyl-ethylamino]-5′-N-ethylcarboxamidoadenosine): 3.07 ± 0.53 µM; Ki ([3]; read-out: Ki, A1 AR, NIH laboratory, HEK293, [3H]-N6-R-phenylisopropyladenosine): 2.87 ± 1.69 µM; Ki [1]: 0.206 ± 0.031 µM
20 | inactive |  |  |  | Nc1nc(CCc2ccccc2)nc2c1ncn2[C@@H]1O[C@H](CO)[C@@H](O)[C@@H]1O [Compound 50] |  |  | 
21 | active | A3 selective |  |  | Nc1nc(C#Cc2ccccc2)nc2c1ncn2[C@@H]1O[C@H](CO)[C@@H](O)[C@@H]1O [Compound 48] |  |  | 
22 |  |  | 12 ± 14% | 27 ± 9% | 2-ethyl-(1,12-dicarba-closo-dodecaboran-2-yl)arabinoadenosine [Compound 49] |  |  | percent of inhibition, A3 AR [1]: 25 ± 8%
